Data set [1] can be described thus: Anti-oxidation: removal of superoxide anion (SOD Assay Kit-WST). The data set is classed as biochemical. As to the method: Superoxide dismutase (SOD) has been known as an anti-oxidation-catalyzing enzyme which converts superoxide anion into H2O2 and O2. This experiment evaluates anti-oxidation activity of samples by observing removal of superoxide anion generated by xanthine oxidase. The experiment was performed using the kit (SOD Assay Kit-WST) purchased from Dojindo (JP) in accordance with manufacture's protocol.

For data set [2], the system named is B16 mouse melanoma cells. Description: Inhibition of melanin production in B16 mouse melanoma cells. The data set is classed as cell-based. The note with it: 72 h, B16 F10 cells, 3 days, read-out: Inhibitory rate of melanin production (%). Here is the method: This cell pellets were dried at 60° C., 100 μl of 1M NaOH containing 10% DMSO was added to thereto, and intracellular melanin was obtained in incubator at 60° C.

Another data set deals with brown guinea pigs. Kind of data set: Skin whitening effect in UV-pigmented brown guinea pigs. The data set is classed as in vivo, guinea pig. The note with it: for Whitening effects (ΔL): once or twice a day for 50 days, control ΔL 0.35. Here is the method: A skin whitening effect of α-bisabolol was measured using brown guinea pigs (Charles River Laboratories, Inc.) pigmentation of which is known to increase upon exposure to ultraviolet light like human.
To induce pigmentation in the brown guinea pig by ultraviolet (UV), aluminum foil with square windows of 3×3 cm^2 was adhered to hair-removed abdominal skin of brown guinea pig, and then UV light was irradiated thereon with a SE lamp (wavelength 290-320 nm, Toshiba) (total irradiation energy=1350 mJ/cm^2). After UV irradiation, the aluminum foil was removed and samples (α-bisabolol or arbutin) were applied as the following method. Increased pigmentation was observed on 2-3 days after UV irradiation and reached a maximum after about 2 weeks. Following the period of time showing the maximum pigmentation, samples were applied.
The application of samples was performed once or twice a day for 50 days. The samples were dissolved or diluted in a solvent (Propylene glycol:ethanol:water 5:3:2) and applied by a swab. The control with only the solvent was applied to another site. The occurrence of cumulative irritation was also examined.
The degree of pigmentation of skin was determined using a chromameter (CR2002, MINOLTA, JP) to estimate the effects of applied samples. La*b* calorimetric system was used to classify color and L* value was used as standard in Example. The L* value was corrected using white board standard and was measured more than five times at one site. Pigmentation was evenly distributed. Skin color differences (ΔL*) between application starting point and application end point were obtained and used to evaluate effects of samples.
ΔL*=L* value on […] after application−L* value on application starting day Equation 1
ΔL* values were obtained for control and sample application to evaluate skin whitening effects.

Data set [3] deals with procollagen type I C-peptide (PICP). Kind of data set: Collagen synthesis (procollagen type I C-peptide) in human fibroblasts. The data set is classed as cell-based. To be noted: 24 hr. Here is the method:
Human fibroblasts (commercially available from pacific) were seeded into a 6-well plate (2×10^5 cells/well) and the well plate was incubated in a 5% CO2 incubator for 24 hr at 37° C. After 24 hr, the medium in each well was removed and cells were incubated with various concentrations of samples for 24 hr. Afterwards, the cell medium was collected and was used as samples. The potential of collagen synthesis was determined by measuring the amount of procollagen type I C-peptide (PICP) in cell medium using Procollagen Type I C-peptide EIA kit (MK101, Takara, Kyoto, Japan) in accordance with manufacturer's protocol.

A further data set deals with Interleukin-2 promoter. Description: Interleukin-2 luciferase reporter activity in PHA-activated Jurkat cells. The data set is classed as cell-based, human. To be noted: 24 hr, PHA alone = 100. As to the method: Interleukin-2 promoter was reported to play an important role in the generation of cytokine related to inflammatory. The activity of interleukin-2 luciferase was measured using the following method: Human T lymphocytes cell line, 1×10^6 of Jurkat cell (Korean Cell Line Bank) were aliquoted into each well of 6-wells, IL-2 luciferase reporter plasmid DNA (Stratagene) was transfected using superfect transfection reagent (In vitrogen). 24 hr after transfection, PHA (Phytohemaglutinin, Sigma) (100 ng/ml) was treated to activate Jurkat cell and each samples was treated with varying concentration. Following 24 hr, the cell was collected and the luciferase activity was measured using luminometer (Berthold Technologies GmbH&Co.KG, Germany).

For a further data set, the system named is COX (cyclooxygenase). Kind of data set: COX inhibitory ability in LPS-treated THP-1 cells. The note with it: LPS alone = 100. The data set is classed as cell-based, human. Here is the method:
To determine whether α-bisabolol had anti-inflammatory effects, the experiment of COX (cyclooxygenase) inhibitory ability was carried out using human monocytic cell, THP-1 cell (Korean Cell Line Bank) according to conventional method. The COX activity was measured in accordance with Methods in Enzymology 43:9 (1994) published by F. J. Van de Ouderaaa and Muytenhek. THP-1 cell line was cultivated and aliquoted into 24-well plate. The incubation volume per well was adjusted to 500 μl, 2 μl of the sample compound, which dissolved in lipopolysaccahride (1 μg/ml, Sigma) and solvents described in the following Table respectively, was added and cultivated for 24-48 hr under the same condition. After 24-48 hr, calcium ionophore (Sigma) and [1-14C] arachidonic acid 1 μl (in EtOH, 0.1 μCi/ml, Sigma) were added to each well, and cultivated for 10 min under the same condition. Following the cultivation, citric acid was added to each well for adjusting to pH 3.5, shaked, each 500 μl of cultivation solution taken from the plate was aliquoted into micro centrifuge tube, 700 μl of ethylacetate was added to thereto, and the solution was shaking extracted for 10 min. 500 μl of ethylacetate layer was concentrated using speed vacuum dryer for 20 min, 20 μl of the residual was dissolved in ethylacetate, and the resultant was employed with authentic standard in TLC plate. The radioactive band was identified by authentic eicosanoid standards, the radioactivity of the identified band was measured using BAS 2000 bio-imaging analyzer (Fuji, JP) (Table 7).

The target of the next data set is T1, intracellular tyrosinase (Mus musculus, UniProt P11344).
T1 sequence (P11344 19-533): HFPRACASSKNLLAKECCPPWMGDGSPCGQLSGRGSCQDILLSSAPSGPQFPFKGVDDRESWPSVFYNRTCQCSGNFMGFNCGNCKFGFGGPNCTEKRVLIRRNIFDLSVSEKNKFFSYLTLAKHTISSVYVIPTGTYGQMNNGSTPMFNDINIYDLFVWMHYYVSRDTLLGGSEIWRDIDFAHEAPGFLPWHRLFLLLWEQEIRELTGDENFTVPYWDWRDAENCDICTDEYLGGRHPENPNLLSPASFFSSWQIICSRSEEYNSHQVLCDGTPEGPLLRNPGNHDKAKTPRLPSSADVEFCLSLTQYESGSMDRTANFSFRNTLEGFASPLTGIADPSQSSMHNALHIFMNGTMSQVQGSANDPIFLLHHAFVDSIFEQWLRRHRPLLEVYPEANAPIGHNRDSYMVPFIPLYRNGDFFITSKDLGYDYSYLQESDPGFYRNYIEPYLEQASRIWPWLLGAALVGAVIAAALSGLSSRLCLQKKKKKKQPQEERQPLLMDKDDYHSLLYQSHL
Description: Inhibition of intracellular tyrosinase activity in murine melanoma (B-16 F1) cells. The note with it: B16-F1, read-out: Inhibitory rate of intracellular tyrosinase activity (%).

The next data set relates to collagenase. Kind of data set: Collagenase activity in human fibroblast medium (Type 1 collagenase assay kit). The data set is classed as cell-based. The note with it: human fibroblasts, 24 hr. Here is the method:
Human fibroblasts (commercially available from pacific) were seeded into a 6-well plate (2×10^5 cells/well) and the well plate was incubated in a 5% CO2 incubator for 24 hr at 37° C. After 24 hr, the medium in each well was removed and cells were incubated with various concentrations of samples for 24 hr. Afterwards, the cell medium was collected and was used as samples.
For measuring the collagenase activity, antibodies against collagenase was used. The collagenase activity was measured using a Type 1 collagenase assay kit (Amersham Biosciences, RPN2629) and the absorbance values were obtain using an ELISA reader (Bio-Tek ELx808™ Series Ultra Microplate Reader, U.K). The measured average values were represented as mean±standard deviation.

Data set [4] is described as follows: Obesity inhibition test in ICR male mice (body weight). The data set is classed as in vivo, mouse. To be noted: single forced administration. As to the method:
An obesity inhibition test was performed by the following method using well-known laboratory animals. The process for determining obesity-inhibitory activity was as follows: Crj: 7 week-old ICR male mice (obtained from Charles River Japan Ltd) weeks were preliminarily fed for 1 week, then classified into groups each having 7 animals and subjected to the test. The animals were fed under controlled conditions at a temperature of 23±1° C., and a humidity of 55±5% under illumination for 12 hours per day. They were fed with a feed Labo MR (manufactured by Nippon Nosan) and allowed to take water ad libitum. α-Bisabolol was present in the form of liposome (prepared with 5% lecithin) to the final concentration of either 0.1% or 1%. The concentration of each sample solution was adjusted so that 0.1 ml of the solution was given per 10 g body weight of mice. The doses employed were […] and 1 g/kg. To a control group, 5% lecithin emulsion was administered. After fasting the mice, the sample was administered once by force on the next day. During the test period over 2 weeks, the body weight and general conditions were monitored.

Data set [5] relates to B16 mouse melanoma cells. Description: Cytotoxicity at the test concentrations in B16 melanoma cells. The data set is classed as cell-based. To be noted: 1 ppm, 5 ppm and 10 ppm.

Description for intracellular tyrosinase: After measuring the inhibition of melanin production by α-bisabolol using B16 mouse melanoma cells (Korean Cell Line Bank), the measurement was compared with that for the inhibition of intracellular tyrosinase activities by arbutin, known as a melanin production inhibitor. Murine melanoma (B-16 F1) cells were seeded into each well of a 6-well plate (1×10^5 cells/well) in DMEM containing 10% FBS (fetal bovine serum) and the cells were cultured to about more than 80% adherence by incubating in a CO2 incubator under conditions of 37° C. and 5.0% CO2. After cultivation, the medium was removed and samples were replaced in medium diluted at suitable concentration, followed by incubating for 3 days under conditions of 37° C. and 5.0% CO2. […] The cells removing medium were washed with PBS (phosphate buffer saline) and treated with trypsin to collect cells. The number of the collected cells was calculated using hematocytometer, centrifuged at 5,000 to 10,000 rpm for 10 min and the supernatant was eliminated, thereby obtaining pellets. This cell pellets were lysated using lysis buffer, centrifuged at 12,000 rpm for 10 min and the supernatant was collected. Then, the cell solution was measured for absorbance at 492 nm using microplate reader and the activity of tyrosinase per cell constant number was estimated.

As to `CC(C)=CCC[C@](C)(O)C1CC=C(C)CC1` (stereo in doubt) [α-Bisabolol, (2S)-6-methyl-2-[(1R)-4-methyl-1-cyclohex-3-enyl]hept-5-en-2ol], the “Removal rate of superoxide anion (%)” value in data set [1] (1 ppm) stood at 8%; in data set [1] (5 ppm) it was 18%; in data set [1] (10 ppm), 34%. For the same compound, the inhibition at 1 ppm in the data set with B16 mouse melanoma cells [2] (1 ppm) turned out to be 24%; at intracellular tyrosinase, 13%. For the same compound, the figures for the inhibition at 5 ppm in the data set on B16 mouse melanoma cells [2] and on intracellular tyrosinase were 36% and 38%, respectively. The inhibition at 10 ppm in the data set on B16 mouse melanoma cells [2] (10 ppm) turned out to be 49%; on intracellular tyrosinase it was 58%. The results for the “Whitening effects (ΔL)” value in the data set with brown guinea pigs (0.2 % topical) and with brown guinea pigs (1.0 % topical) were 0.42 and 0.67, respectively. In addition, the Cumulative irritation entry with brown guinea pigs (topical on brown guinea pig skin for 50 days) was “no observation of cumulative irritation”. The “Increase of collagen synthesis (%)” value came out at 23% in [3] (1 ppm), 43% in data set [3] (5 ppm) and 76% in data set [3] (10 ppm). In addition, the IL-2 luciferase activities is on record as 92 with Interleukin-2 promoter (1 ppm with PHA (100 ng/ml)), 72 in the data set with Interleukin-2 promoter (5 ppm with PHA (100 ng/ml)) and 58 in the data set on Interleukin-2 promoter (10 ppm with PHA (100 ng/ml)). The figures for the “COX activities (%)” value in the data set with COX (cyclooxygenase) (1 ppm with LPS (1 μg/ml)), in the data set with COX (cyclooxygenase) (5 ppm with LPS (1 μg/ml)) and in the data set on COX (cyclooxygenase) (10 ppm with LPS (1 μg/ml)) were 95%, 75% and 67%, respectively. Further, the entries for the “Inhibition of collagenase (%)” value in the data set with collagenase (1 ppm), with collagenase (5 ppm) and with collagenase (10 ppm) were 12%, 28% and 43%, respectively. Further, the “Body weight” value was 24 g in [4] (0.1% in liposome, day 5, untreated 24); 24 g in data set [4] (0.1% in liposome, day 10, untreated 28); 26 g in data set [4] (0.1% in liposome, day 15, untreated 34); 23 g in data set [4] (1% in liposome, day 5, untreated 24); 24 g in [4] (1% in liposome, day 10, untreated 28); 26 g in data set [4] (1% in liposome, day 15, untreated 34). In the data set on B16 mouse melanoma cells [5], the Cytotoxicity entry is “did not show cytotoxicity”.

In the case of `OC[C@H]1O[C@@H](Oc2ccc(O)cc2)[C@H](O)[C@@H](O)[C@@H]1O` [Arbutin, reference compound], the inhibition at 5 ppm in the data set with B16 mouse melanoma cells [2] was determined as 22%; on intracellular tyrosinase, 45%. Also, in the data set with brown guinea pigs (1.0 % topical), the “Whitening effects (ΔL)” value amounted to 0.54.

The values above are taken from patent US20100015071A1, “Compositions for Improving Skin Conditions Comprising Alpha-Bisabolol as an Active Ingredient” (Biospectrum Inc., priority 2007, published 2010).
